Test results published in article PMC3112094, “Pro-apoptotic activity of α-bisabolol in preclinical models of primary human acute leukemia cells” (Journal of Translational Medicine, 2011).

What was measured:
healthy lymphocytes = assay: Oxygen consumption of permeabilized cells (oxygraph, Clark electrode); type: cell-based, human; settings: healthy lymphocytes of 6 donors, 3 μM α-bisabolol, 10 minutes, 30°C
Description: (§1) Leukemic cells and normal lymphocytes were centrifuged (10 minutes, 200 × g) and washed with ice cold buffer A (250 mM sucrose, 20 mM HEPES, 10 mM MgCl2 - pH 7.1). The pellet was resuspended in 2 mL of buffer A containing 80 μg of digitonin. After a 1-minute incubation on ice, 8 mL of buffer A were added and cells were centrifuged (3 minutes, 400 × g). The pellet was resuspended in 100 μL buffer A containing 1 mM ADP, 2 mM […] (respiration buffer) and immediately used for the polarographic assay. Cell number and permeabilization was measured by the trypan blue exclusion method. Permeabilized leukemic cells and lymphocytes were assayed for oxygen consumption at 30°C using a thermostatically controlled oxygraph and Clark electrode. Cells were incubated for 10 minutes in respiration buffer at 30°C in the presence or absence of 3 μM α-bisabolol. Mitochondrial respiration (state 3 respiration) was started by adding 5 mM glutamate plus malate (G/M) and 5 mM succinate plus glycerol-3-phosphate (S/[…]), which are complex I and […]/glycerol-3-phosphate dehydrogenase substrates, respectively. The maximal respiration rate (uncoupled respiration) was empirically determined by the addition of 200 nM carbonylcyanide-4- (trifluoromethoxy)-phenylhydrazone (FCCP).

[1] = tested on: permeabilized leukemic cells; assay: as above; type: cell-based, human
Description: as §1

[2] = parameters: method as in PMID 14975741; settings: previous studies ref 1; cited from earlier work
CD33^+my cells = assay: Cytotoxicity in normal bone marrow cells, TruCOUNT flow cytometry; type: cell-based, human; settings: 5 normal bone marrow samples; for cytotoxicity: 24 hours, mean ± SD
Description: (§2) Viable peripheral blood leukocytes and bone marrow cells from - 4 - control donors were treated and used as specified above for leukemic cells.
(§3) Cells derived from patients or normal donors were exposed for 24 hours to 20, 40, 80, and 160 μM α-bisabolol dissolved in ethanol (1:8 in order to minimize drug volumes), and when appropriate to 3 μM imatinib mesylate (Novartis, Basel, CH), representative of the in vivo active concentration. All cytotoxicity tests were performed in triplicate.
(§4) The absolute counts of normal leukocytes sub-populations were measured with TruCOUNT tubes (Becton Dickinson, San Jose, CA) by polychromatic flow cytometry according to the manufacturer's instructions with minor modifications. Peripheral blood and bone marrow cells were cultured with α-bisabolol for 24, 48, 72, 96 and 120 hours. At the end of the culture, 200 μL of sample, a mixture of antibodies (CD45 APC-H7, CD3 PE-Cy7, CD19 PE, CD14 APC for peripheral blood and CD45 APC-H7, CD34 PE, CD33 PE-Cy7 for bone marrow) and 7-amino-actinomycin D (all reagents from Becton Dickinson) for dead cells exclusion were added to the TruCOUNT tubes. After a 15-minute incubation at room temperature, 1 mL lysing reagent (Biosource, Nivelles, BE) was added for 10 minutes. A total of 40,000 beads were acquired on a FACSCanto cytometer (Becton Dickinson). A sequential Boolean gating strategy was used to accurately enumerate different populations.
(§5) Student's t-test for means, chi-squared tests, Mann-Whitney U test and Kruskall-Wallis analysis of variance by ranks were considered significant for p values < 0.05.

CD34^+ cells = assay: as above; type: cell-based, human; settings: for cytotoxicity: 24 hours, mean ± SD; for IC50: Homo sapiens, Bone marrow cell, 24 h, 24-hour
Description: as §2, §3, §4, §5

leukemic blasts = assay: PARP cleavage (Western blot) and DNA ladder; type: cell-based, human; settings: blasts of case Ph^-B-ALL #01 after α-bisabolol exposure
Description: Cells were homogenized at 4°C in 50 mM Tris-HCl (pH 8) containing 0.1% Nonidet-P40 (NP-40), 200 mM KCl, 2 mM MgCl2, 50 μM ZnCl2, 2 mM DTT, and protease inhibitors [1 mM phenylmethylsulfonyl fluoride (PMSF), 1 mg/mL leupeptin, and 1 mg/mL antipain]. Aliquots of the homogenates (40 μg total protein/lane) were loaded on SDS-polyacrylamide gels at the appropriate concentrations. Electrophoresis was performed at 100 V with a running buffer containing 0.25 M Tris-HCl (pH 8.3), 1.92 M glycine, and 1% SDS. The resolved proteins were electroblotted onto a nitrocellulose membrane using the iBlot™ system (Invitrogen, Carlsbad, CA). Membranes were then incubated with a mouse monoclonal IgG antibody to poly(ADP-ribose) polymerase (PARP) (Zymed, South San Francisco, CA), with a rabbit polyclonal IgG antibody to BID (Cell Signaling Technology, Danvers, MA) or with a rabbit polyclonal IgG antibody to α-tubulin (Cell Signaling Technology). The membranes were then washed and incubated with an anti-mouse or anti-rabbit IgG peroxidase-conjugated antibody (Cell Signaling Technology). The blots were washed again and then incubated with enhanced chemiluminescent detection reagents (Immun-Star™ WesternC™ Kit, Bio-Rad, Hercules, CA) according to the manufacturer's instructions. Proteins were detected using the ChemiDoc XRS Imaging System (Bio-Rad). […]

## CC(C)=CCC[C@](C)(O)[C@@H]1CC=C(C)CC1 [α-bisabolol]
Healthy lymphocytes
  respiration in state 3 (G/M, S/G3P) and with FCCP: not statistically modified
[1]; 3 μM α-bisabolol, 10 minutes, 30°C
  oxygen consumption sustained by S/G3P oxidation: not affected
[1]; 3 μM α-bisabolol, 10 minutes, 30°C, 6 leukemias, untreated controls 280.7 ± 11.9
  NADH-supported state 3 respiration (G/M) oxygen consumption: 140.0 ± 70.5 pmol O2/minute/10^6 cells
[1]; 3 μM α-bisabolol-treated leukemic cells, 200 nM FCCP
  stimulation of mitochondrial respiration by FCCP (uncoupled respiration): not stimulated
[2]
  solubility fraction: 2.5%
CD33^+my cells; 20 μM α-bisabolol
  cytotoxicity: 2 ± 2%
CD33^+my cells; 40 μM α-bisabolol
  cytotoxicity: 4 ± 3%
CD33^+my cells; 80 μM α-bisabolol
  cytotoxicity: 40 ± 39%
CD33^+my cells; 160 μM α-bisabolol
  cytotoxicity: 99 ± 1%
CD33^+my cells; Homo sapiens, Bone marrow cell, 24-hour
  IC50: 95 ± 7 µM
CD34^+ cells; CD34^+, 5 normal bone marrow samples, 20 μM α-bisabolol
  cytotoxicity: 1 ± 2%
CD34^+ cells; CD34^+, 5 normal bone marrow samples, 40 μM α-bisabolol
  cytotoxicity: 22 ± 19%
CD34^+ cells; CD34^+, 5 normal bone marrow samples, 80 μM α-bisabolol
  cytotoxicity: 72 ± 35%
CD34^+ cells; CD34^+, 5 normal bone marrow samples, 160 μM α-bisabolol
  cytotoxicity: 98 ± 1%
CD34^+ cells; CD34^+, 5 normal bone marrow samples
  IC50: 62 ± 9 µM
CD34^+ cells; CD34^+/19^+ cells, normal bone marrow
  IC50: 63 ± 4 µM
CD34^+ cells; CD34^+/33^+ cells, normal bone marrow
  IC50: 64 ± 6 µM
Leukemic blasts
  PARP cleavage and DNA laddering: underwent PARP cleavage and DNA laddering
